# Measured values as given in patent publication US6358885B1, “Substituted phenylheterocyclic herbicides” (Mississippi State University, priority 1992, dated 2002).
# Experiments:
# lambsquarters = experiment: Test B preemergence/postemergence greenhouse plant response rating 0 to 10; format: in vivo, Chenopodium album; settings: for Plant response rating, Lambsquarter: 0 to 10 scale
# Method in brief: (§1)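 Both application timings were run together: seeds got compound preemergence, and established seedlings (two to eighteen cm) got it postemergence. Non-phytotoxic solvent carried the chemical. Ratings are visual, versus controls, at twelve to sixteen days.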
# giant foxtail = experiment: as above; format: in vivo, Setaria faberii; settings: for Plant response rating, Giant foxtail: 0 to 10 scale
# Method in brief: as §1
# purple nutsedge = experiment: as above; format: in vivo, Cyperus rotundus; settings: for Plant response rating, Nutsedge: 0 to 10 scale
# Method in brief: as §1
# cheatgrass = experiment: as above; format: in vivo, Bromus secalinus; settings: for Plant response rating, Cheatgrass: 0 to 10 scale
# Method in brief: as §1
# pigweed = experiment: Test C preemergence/postemergence greenhouse plant response rating 0 to 100; format: in vivo, Amaranthusretroflexus; settings: for Plant response rating Pigweed: 125 g/ha, 0 to 100 scale
# Method in brief: (§2)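 Compounds in non-phytotoxic solvent applied preemergence to sandy loam one day after planting, postemergence at the 1–4 leaf stage, or to ~2.5 cm floodwater over silt loam.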
# barley = experiment: as above; format: in vivo, Hordeum vulgare; settings: for Plant response rating Barley Igri: 125 g/ha, 0 to 100 scale
# Method in brief: as §2
# crabgrass = experiment: Test B preemergence/postemergence greenhouse plant response rating 0 to 10; format: in vivo, Digitaria spp.; settings: for Plant response rating, Crabgrass: 0 to 10 scale
# Method in brief: as §1
# ryegrass = experiment: Test C preemergence/postemergence greenhouse plant response rating 0 to 100; format: in vivo, Lolium multiflorum; settings: for Plant response rating Ryegrass: 125 g/ha, 0 to 100 scale
# Method in brief: as §2
# soybean = experiment: as above; format: in vivo, Glycine max; settings: for Plant response rating, Soybean: 125 g/ha, 0 to 100 scale
# Method in brief: as §2
compound,measurement,setting,value
CCOCOc1cc(-c2nn3c(c2Cl)CCCC3)c(F)cc1Cl [Compound 59],"Plant response rating, Lambsquarter","lambsquarters; POSTEMERGENCE, Rate 50 g/ha",10
same,"Plant response rating, Lambsquarter","lambsquarters; PREEMERGENCE, Rate 50 g/ha",10
same,"Plant response rating (0 to 10 scale), Lambsquarter","lambsquarters; PREEMERGENCE, Rate 200 g/ha",10
same,"Plant response rating, Lambsquarter","lambsquarters; Rate 200 g/ha, POSTEMERGENCE",10
same,"Plant response rating, Giant foxtail","giant foxtail; POSTEMERGENCE, Rate 50 g/ha",6
same,"Plant response rating, Giant foxtail","giant foxtail; PREEMERGENCE, Rate 50 g/ha",9
same,"Plant response rating (0 to 10 scale), Giant foxtail","giant foxtail; PREEMERGENCE, Rate 200 g/ha",10
same,"Plant response rating, Giant foxtail","giant foxtail; Rate 200 g/ha, POSTEMERGENCE",7
same,"Plant response rating, Nutsedge","purple nutsedge; POSTEMERGENCE, Rate 50 g/ha",2
same,"Plant response rating, Nutsedge","purple nutsedge; PREEMERGENCE, Rate 50 g/ha",0
same,"Plant response rating (0 to 10 scale), Nutsedge","purple nutsedge; PREEMERGENCE, Rate 200 g/ha",0
same,"Plant response rating, Nutsedge","purple nutsedge; Rate 200 g/ha, POSTEMERGENCE",5
same,"Plant response rating, Cheatgrass","cheatgrass; POSTEMERGENCE, Rate 50 g/ha",4
same,"Plant response rating, Cheatgrass","cheatgrass; PREEMERGENCE, Rate 50 g/ha",4
same,"Plant response rating (0 to 10 scale), Cheatgrass","cheatgrass; PREEMERGENCE, Rate 200 g/ha",5
same,"Plant response rating, Cheatgrass","cheatgrass; Rate 200 g/ha, POSTEMERGENCE",6
same,Plant response rating Pigweed,pigweed; POSTEMERGENCE,100
same,"Plant response rating (0 to 100), Pigweed","pigweed; POSTEMERGENCE, Rate 2 g/ha",30
same,Plant response rating Pigweed,pigweed; PREEMERGENCE,100
same,"Plant response rating (0 to 100), Pigweed","pigweed; PREEMERGENCE, Rate 2 g/ha",0
same,"Plant response rating (0 to 100), Pigweed","pigweed; Rate 8 g/ha, POSTEMERGENCE",30
same,"Plant response rating (0 to 100), Pigweed","pigweed; Rate 8 g/ha, PREEMERGENCE",100
same,"Plant response rating (0 to 100), Pigweed","pigweed; Rate 31 g/ha, POSTEMERGENCE",100
same,"Plant response rating (0 to 100), Pigweed","pigweed; Rate 31 g/ha, PREEMERGENCE",100
same,Plant response rating Barley Igri,barley; POSTEMERGENCE,60
same,"Plant response rating (0 to 100), Barley Igri","barley; POSTEMERGENCE, Rate 2 g/ha",30
same,Plant response rating Barley Igri,barley; PREEMERGENCE,10
same,"Plant response rating (0 to 100), Barley Igri","barley; PREEMERGENCE, Rate 2 g/ha",0
same,"Plant response rating (0 to 100), Barley Igri","barley; Rate 8 g/ha, POSTEMERGENCE",40
same,"Plant response rating (0 to 100), Barley Igri","barley; Rate 8 g/ha, PREEMERGENCE",0
same,"Plant response rating (0 to 100), Barley Igri","barley; Rate 31 g/ha, POSTEMERGENCE",50
same,"Plant response rating (0 to 100), Barley Igri","barley; Rate 31 g/ha, PREEMERGENCE",0
same,"Plant response rating, Crabgrass","crabgrass; POSTEMERGENCE, Rate 50 g/ha",4
same,"Plant response rating, Crabgrass","crabgrass; PREEMERGENCE, Rate 50 g/ha",5
same,"Plant response rating (0 to 10 scale), Crabgrass","crabgrass; PREEMERGENCE, Rate 200 g/ha",10
same,"Plant response rating, Crabgrass","crabgrass; Rate 200 g/ha, POSTEMERGENCE",5
same,Plant response rating Ryegrass,ryegrass; POSTEMERGENCE,80
same,"Plant response rating (0 to 100), Ryegrass","ryegrass; POSTEMERGENCE, Rate 2 g/ha",10
same,Plant response rating Ryegrass,ryegrass; PREEMERGENCE,90
same,"Plant response rating (0 to 100), Ryegrass","ryegrass; PREEMERGENCE, Rate 2 g/ha",0
same,"Plant response rating (0 to 100), Ryegrass","ryegrass; Rate 8 g/ha, POSTEMERGENCE",20
same,"Plant response rating (0 to 100), Ryegrass","ryegrass; Rate 8 g/ha, PREEMERGENCE",20
same,"Plant response rating (0 to 100), Ryegrass","ryegrass; Rate 31 g/ha, POSTEMERGENCE",40
same,"Plant response rating (0 to 100), Ryegrass","ryegrass; Rate 31 g/ha, PREEMERGENCE",50
same,"Plant response rating, Soybean",soybean; POSTEMERGENCE,70
same,"Plant response rating (0 to 100), Soybean","soybean; POSTEMERGENCE, Rate 2 g/ha",30
same,"Plant response rating, Soybean",soybean; PREEMERGENCE,0
same,"Plant response rating (0 to 100), Soybean","soybean; PREEMERGENCE, Rate 2 g/ha",0
same,"Plant response rating (0 to 100), Soybean","soybean; Rate 8 g/ha, POSTEMERGENCE",50
same,"Plant response rating (0 to 100), Soybean","soybean; Rate 8 g/ha, PREEMERGENCE",0
same,"Plant response rating (0 to 100), Soybean","soybean; Rate 31 g/ha, POSTEMERGENCE",60
same,"Plant response rating (0 to 100), Soybean","soybean; Rate 31 g/ha, PREEMERGENCE",0
